This test deals with ACE. Put plainly: Determination of ACE inhibitory activity (HHL substrate, hippuric acid measured by HPLC). It counts as biochemical. As to conditions: for IC50: ACE inhibition, IC50 found from the inhibition rate vs concentration curve. The protocol:
(2) Determination Method of ACE Inhibitory Activity
10 μL of ACE solution (0.25 U/mL, ACE enzyme was dissolved into pH 7 potassium phosphate buffer) was respectively added into a sample tube (B) and a blank tube (A), 10 μL of ACEI was added into the sample tube, 10 μL of buffer was added into the blank tube, samples were incubated for 5 min at 37° C., then 30 μL of HHL solution ([…], HHL was dissolved into pH 8.3 0.1 mol·L^−1 borate buffer, containing 0.3 mol·L^−1 NaCl) was added, the above materials reacted for 1 h at 37° C., and then 80 μL of 1.0 mol/L HCl was added to terminate the reaction, so as to obtain a reaction solution, seen in Table 2.
Mobile phase and chromatographic conditions: acetonitrile: ultrapure water=25:75 (including 0.1% (V/V) TFA), flow rate: 1 mL/min; detection wavelength: 228 nm; column temperature: 30° C.; injection volume: 20 μL.
Principle: HHL was rapidly decomposed under the catalysis of ACE to produce hippuric acid (Hip) and dipeptide (His-Leu, HL). Hippuric acid has the maximum absorption at 228 nm. When ACEI samples were added, the activity of the ACE enzyme was inhibited and the production amount of hippuric acid was reduced. Therefore, the inhibition rate of ACEI on ACE activity can be evaluated by measuring the production amount of hippuric acid by HPLC.
In the formula, R: an inhibition rate (%) of ACEI sample on ACE; • A: a peak area of hippuric acid in control group • B: a peak area of hippuric acid in ACEI addition group • A0: a peak area of hippuric acid in blank group
Where, IC50 is defined as a concentration of an inhibitor required when a half of ACE enzyme activity is inhibited under certain conditions. There was no a linear relationship between the inhibition rate and the concentration of the formulation, and therefore a curve of a relationship between the inhibition rate and the concentration of the formulation was firstly plotted, and then IC50 was found out from the curve. […]

With “LIIPEH [Artificially synthesized monomer H6, Leu-Ile-Ile-Pro-Glu-His, Synthesized LIIPEH by Shanghai jiepeptide Biotechnology Co., Ltd]”, the 50% inhibitory concentration (IC50) is 56.67 ± 12.02 µg/mL.
Turning to “LIIPEH [RP-HCLP separated monomer H6, Leu-Ile-Ile-Pro-Glu-His, Oligopeptide LIIPEH separated and purified from rice wine lees]”, the half-inhibitory concentration (IC50) (listed as oligopeptide) amounted to 280.00 ± 5.77 µg/mL. In addition, the “inhibition rate on ACE” value (concentration of the sample 1 mg/mL) was determined as 91.72%.

The record behind these values is patent publication US20250263434A1, “OLIGOPEPTIDE HAVING BLOOD PRESSURE REDUCING EFFECT, AND PREPARATION METHOD THEREFOR AND APPLICATION THEREOF” (South China Agricultural University, priority 2020, published 2025).
